Measurements taken from the supplement of paper PMC10307832.

Tests used:
Assay in all cases: relative viability (nuclei count vs DMSO), 5 days (fraction); higher = more cells survive
ChaGo-K-1 = system: ChaGo-K-1
In short: (§1)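 Lung cancer cell lines were pin-tool dosed in 1536-well plates on the day after seeding, with either a lone drug or a fixed anchor-drug dose plus five library-drug doses (not always all listed) in √10 steps. Nuclei were counted on 4× images after 5 days. Relative viability is the ratio of treated-well to vehicle-well nuclei counts, with each value a median of duplicate plates.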

EKVX = system: EKVX
In short: as §1

EMC-BAC-2 = system: EMC-BAC-2
In short: as §1

EPLC-272H = system: EPLC-272H
In short: as §1

HCC-78 = system: HCC-78
In short: as §1

HCC-827 = system: HCC-827
In short: as §1

LCLC-103H = system: LCLC-103H
In short: as §1

LK-2 = system: LK-2
In short: as §1

LU99A = system: LU99A
In short: as §1

NCI-H1666 = system: NCI-H1666
In short: as §1

NCI-H1975 = system: NCI-H1975
In short: as §1

NCI-H2126 = system: NCI-H2126
In short: as §1

NCI-H2342 = system: NCI-H2342
In short: as §1

NCI-H23 = system: NCI-H23
In short: as §1

NCI-H2405 = system: NCI-H2405
In short: as §1

NCI-H322M = system: NCI-H322M
In short: as §1

PC-14 = system: PC-14
In short: as §1

RERF-LC-KJ = system: RERF-LC-KJ
In short: as §1

SK-LU-1 = system: SK-LU-1
In short: as §1

SW 1573 = system: SW 1573
In short: as §1

SW 900 = system: SW 900
In short: as §1

Question: How did the relative viability (ChaGo-K-1; first compound 0.005 µM) turn out when `Nc1ccn([C@@H]2O[C@H](CO)[C@@H](O)[C@@H]2O)c(=O)n1` [Cytarabine] + CC(=O)Nc1cccc(-n2c(=O)n(C3CC3)c(=O)c3c(Nc4ccc(I)cc4F)n(C)c(=O)c(C)c32)c1 [Trametinib] (partner 0.02 µM) was run?
Answer: 0.688

Question: What about the relative viability (ChaGo-K-1; first compound 0.01581 µM) of the same molecule?
Answer: 0.625

Question: And the relative viability (ChaGo-K-1; first compound 0.05 µM)?
Answer: 0.504

Question: And the relative viability (ChaGo-K-1; first compound 0.1581 µM)?
Answer: 0.308

Question: What about the relative viability (ChaGo-K-1; first compound 0.5 µM) of the same molecule?
Answer: 0.247

Question: And the relative viability (EKVX; first compound 0.005 µM)?
Answer: 0.584

Question: And the relative viability (EKVX; first compound 0.01581 µM)?
Answer: 0.285

Question: What about the relative viability (EKVX; first compound 0.05 µM) of the same molecule?
Answer: 0.295

Question: What about the relative viability (EKVX; first compound 0.5 µM) of the same molecule?
Answer: 0.167

Question: And the relative viability (EMC-BAC-2; first compound 0.005 µM)?
Answer: 0.972

Question: What about the relative viability (EMC-BAC-2; first compound 0.01581 µM) of the same molecule?
Answer: 0.902

Question: What about the relative viability (EMC-BAC-2; first compound 0.05 µM) of the same molecule?
Answer: 0.842

Question: And the relative viability (EMC-BAC-2; first compound 0.1581 µM)?
Answer: 0.497

Question: And the relative viability (EMC-BAC-2; first compound 0.5 µM)?
Answer: 0.427

Question: What about the relative viability (EPLC-272H; first compound 0.005 µM) of the same molecule?
Answer: 0.302

Question: What about the relative viability (EPLC-272H; first compound 0.01581 µM) of the same molecule?
Answer: 0.246

Question: What about the relative viability (EPLC-272H; first compound 0.05 µM) of the same molecule?
Answer: 0.283

Question: What about the relative viability (EPLC-272H; first compound 0.1581 µM) of the same molecule?
Answer: 0.211

Question: What about the relative viability (EPLC-272H; first compound 0.5 µM) of the same molecule?
Answer: 0.22

Question: What about the relative viability (HCC-78; first compound 0.005 µM) of the same molecule?
Answer: 1.06

Question: And the relative viability (HCC-78; first compound 0.01581 µM)?
Answer: 0.688

Question: And the relative viability (HCC-78; first compound 0.05 µM)?
Answer: 0.575

Question: And the relative viability (HCC-78; first compound 0.1581 µM)?
Answer: 0.478

Question: And the relative viability (HCC-78; first compound 0.5 µM)?
Answer: 0.37

Question: And the relative viability (HCC-827; first compound 0.005 µM)?
Answer: 0.362

Question: And the relative viability (HCC-827; first compound 0.01581 µM)?
Answer: 0.313

Question: What about the relative viability (HCC-827; first compound 0.05 µM) of the same molecule?
Answer: 0.239

Question: And the relative viability (HCC-827; first compound 0.1581 µM)?
Answer: 0.188

Question: What about the relative viability (HCC-827; first compound 0.5 µM) of the same molecule?
Answer: 0.154

Question: And the relative viability (LCLC-103H; first compound 0.005 µM)?
Answer: 0.692

Question: And the relative viability (LCLC-103H; first compound 0.01581 µM)?
Answer: 0.687

Question: And the relative viability (LCLC-103H; first compound 0.05 µM)?
Answer: 0.671

Question: And the relative viability (LCLC-103H; first compound 0.1581 µM)?
Answer: 0.682

Question: And the relative viability (LCLC-103H; first compound 0.5 µM)?
Answer: 0.742

Question: And the relative viability (LK-2; first compound 0.005 µM)?
Answer: 1.01

Question: And the relative viability (LK-2; first compound 0.01581 µM)?
Answer: 0.701

Question: What about the relative viability (LK-2; first compound 0.05 µM) of the same molecule?
Answer: 0.479

Question: And the relative viability (LK-2; first compound 0.1581 µM)?
Answer: 0.226

Question: What about the relative viability (LK-2; first compound 0.5 µM) of the same molecule?
Answer: 0.268

Question: What about the relative viability (LU99A; first compound 0.005 µM) of the same molecule?
Answer: 0.588

Question: What about the relative viability (LU99A; first compound 0.01581 µM) of the same molecule?
Answer: 0.447

Question: And the relative viability (LU99A; first compound 0.05 µM)?
Answer: 0.497

Question: And the relative viability (LU99A; first compound 0.1581 µM)?
Answer: 0.549

Question: And the relative viability (LU99A; first compound 0.5 µM)?
Answer: 0.544

Question: What about the relative viability (NCI-H1666; first compound 0.005 µM) of the same molecule?
Answer: 0.806

Question: And the relative viability (NCI-H1666; first compound 0.01581 µM)?
Answer: 0.728

Question: What about the relative viability (NCI-H1666; first compound 0.05 µM) of the same molecule?
Answer: 0.76

Question: What about the relative viability (NCI-H1666; first compound 0.1581 µM) of the same molecule?
Answer: 0.646

Question: And the relative viability (NCI-H1666; first compound 0.5 µM)?
Answer: 0.592

Question: And the relative viability (NCI-H1975; first compound 0.005 µM)?
Answer: 0.34

Question: What about the relative viability (NCI-H1975; first compound 0.01581 µM) of the same molecule?
Answer: 0.267

Question: And the relative viability (NCI-H1975; first compound 0.05 µM)?
Answer: 0.631

Question: What about the relative viability (NCI-H1975; first compound 0.1581 µM) of the same molecule?
Answer: 0.25

Question: What about the relative viability (NCI-H1975; first compound 0.5 µM) of the same molecule?
Answer: 0.24

Question: What about the relative viability (NCI-H2126; first compound 0.005 µM) of the same molecule?
Answer: 0.575

Question: And the relative viability (NCI-H2126; first compound 0.01581 µM)?
Answer: 0.505

Question: What about the relative viability (NCI-H2126; first compound 0.05 µM) of the same molecule?
Answer: 0.448

Question: What about the relative viability (NCI-H2126; first compound 0.1581 µM) of the same molecule?
Answer: 0.349

Question: And the relative viability (NCI-H2126; first compound 0.5 µM)?
Answer: 0.357

Question: What about the relative viability (NCI-H2342; first compound 0.005 µM) of the same molecule?
Answer: 0.779

Question: What about the relative viability (NCI-H2342; first compound 0.01581 µM) of the same molecule?
Answer: 0.825

Question: And the relative viability (NCI-H2342; first compound 0.05 µM)?
Answer: 0.803

Question: What about the relative viability (NCI-H2342; first compound 0.1581 µM) of the same molecule?
Answer: 0.579

Question: What about the relative viability (NCI-H2342; first compound 0.5 µM) of the same molecule?
Answer: 0.646

Question: What about the relative viability (NCI-H23; first compound 0.005 µM) of the same molecule?
Answer: 0.441

Question: And the relative viability (NCI-H23; first compound 0.01581 µM)?
Answer: 0.355

Question: What about the relative viability (NCI-H23; first compound 0.05 µM) of the same molecule?
Answer: 0.223

Question: And the relative viability (NCI-H23; first compound 0.1581 µM)?
Answer: 0.165

Question: What about the relative viability (NCI-H23; first compound 0.5 µM) of the same molecule?
Answer: 0.14

Question: What about the relative viability (NCI-H2405; first compound 0.005 µM) of the same molecule?
Answer: 0.648

Question: What about the relative viability (NCI-H2405; first compound 0.01581 µM) of the same molecule?
Answer: 0.53

Question: What about the relative viability (NCI-H2405; first compound 0.05 µM) of the same molecule?
Answer: 0.464

Question: What about the relative viability (NCI-H2405; first compound 0.1581 µM) of the same molecule?
Answer: 0.401

Question: And the relative viability (NCI-H2405; first compound 0.5 µM)?
Answer: 0.317

Question: What about the relative viability (NCI-H322M; first compound 0.005 µM) of the same molecule?
Answer: 0.484

Question: And the relative viability (NCI-H322M; first compound 0.01581 µM)?
Answer: 0.456

Question: What about the relative viability (NCI-H322M; first compound 0.05 µM) of the same molecule?
Answer: 0.441

Question: What about the relative viability (NCI-H322M; first compound 0.1581 µM) of the same molecule?
Answer: 0.429

Question: And the relative viability (NCI-H322M; first compound 0.5 µM)?
Answer: 0.402

Question: What about the relative viability (PC-14; first compound 0.005 µM) of the same molecule?
Answer: 0.712

Question: And the relative viability (PC-14; first compound 0.01581 µM)?
Answer: 0.669

Question: What about the relative viability (PC-14; first compound 0.05 µM) of the same molecule?
Answer: 0.515

Question: And the relative viability (PC-14; first compound 0.1581 µM)?
Answer: 0.0885

Question: And the relative viability (PC-14; first compound 0.5 µM)?
Answer: 0.079

Question: And the relative viability (RERF-LC-KJ; first compound 0.005 µM)?
Answer: 0.797

Question: What about the relative viability (RERF-LC-KJ; first compound 0.01581 µM) of the same molecule?
Answer: 0.862

Question: What about the relative viability (RERF-LC-KJ; first compound 0.05 µM) of the same molecule?
Answer: 0.716

Question: And the relative viability (RERF-LC-KJ; first compound 0.1581 µM)?
Answer: 0.498

Question: And the relative viability (RERF-LC-KJ; first compound 0.5 µM)?
Answer: 0.402

Question: And the relative viability (SK-LU-1; first compound 0.005 µM)?
Answer: 0.416

Question: What about the relative viability (SK-LU-1; first compound 0.01581 µM) of the same molecule?
Answer: 0.454

Question: And the relative viability (SK-LU-1; first compound 0.05 µM)?
Answer: 0.423

Question: And the relative viability (SK-LU-1; first compound 0.1581 µM)?
Answer: 0.356

Question: And the relative viability (SK-LU-1; first compound 0.5 µM)?
Answer: 0.303

Question: What about the relative viability (SW 1573; first compound 0.005 µM) of the same molecule?
Answer: 0.509

Question: And the relative viability (SW 1573; first compound 0.01581 µM)?
Answer: 0.482

Question: And the relative viability (SW 1573; first compound 0.05 µM)?
Answer: 0.415

Question: And the relative viability (SW 1573; first compound 0.1581 µM)?
Answer: 0.177

Question: And the relative viability (SW 1573; first compound 0.5 µM)?
Answer: 0.0822

Question: What about the relative viability (SW 900; first compound 0.005 µM) of the same molecule?
Answer: 0.83

Question: What about the relative viability (SW 900; first compound 0.01581 µM) of the same molecule?
Answer: 0.653

Question: What about the relative viability (SW 900; first compound 0.05 µM) of the same molecule?
Answer: 0.662

Question: And the relative viability (SW 900; first compound 0.1581 µM)?
Answer: 0.23

Question: What about the relative viability (SW 900; first compound 0.5 µM) of the same molecule?
Answer: 0.243
